Source: US9169254B2, “Spiroimidazolone derivative” (Chugai Seiyaku Kabushiki Kaisha, priority 2009, dated 2015)
Structures can show the parent of a compound that is named as a salt.

Target: T1, human PTH1 receptor (Homo sapiens, UniProt Q03431)
T1 sequence (Q03431 27-593): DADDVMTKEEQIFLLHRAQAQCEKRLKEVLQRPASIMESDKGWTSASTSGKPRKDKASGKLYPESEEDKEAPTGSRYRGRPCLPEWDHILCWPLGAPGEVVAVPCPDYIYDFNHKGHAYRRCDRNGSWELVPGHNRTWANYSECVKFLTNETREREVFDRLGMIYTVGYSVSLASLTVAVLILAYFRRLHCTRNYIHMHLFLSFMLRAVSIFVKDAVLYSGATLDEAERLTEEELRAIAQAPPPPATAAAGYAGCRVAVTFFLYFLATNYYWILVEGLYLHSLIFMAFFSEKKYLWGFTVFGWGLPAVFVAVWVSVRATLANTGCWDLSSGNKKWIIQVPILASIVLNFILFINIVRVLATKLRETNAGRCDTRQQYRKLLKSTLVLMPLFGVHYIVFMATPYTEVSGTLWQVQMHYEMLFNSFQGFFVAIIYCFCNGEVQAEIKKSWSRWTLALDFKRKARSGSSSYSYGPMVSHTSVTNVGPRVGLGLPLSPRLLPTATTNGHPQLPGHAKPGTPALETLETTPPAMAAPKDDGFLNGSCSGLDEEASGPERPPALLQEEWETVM
Experiment: In vitro cAMP signal activity in HKRK-B7 cells (LLC-PK1 cells overexpressing the human PTH1 receptor)
Format: cell-based
Conditions: HKRK-B7 cells; compound at 1×10^−3 M; […]; 0.1 µM

| SMILES | cAMP production activity (%) |
| --- | --- |
| O=C(Cn1ccc2c(/C=C/S(=O)(=O)N3CCC4(CC3)N=C(C3CCCCC3)NC4=O)cccc21)Nc1ccncc1 [Compound 736, 2-{4-[(E)-2-(2-Cyclohexyl-4-oxo-1,3,8-triaza-spiro[4.5]dec-1-ene-8-sulfonyl)-vinyl]-indol-1-yl}-N-pyridin-4-yl-acetamide] | 16% |

Same assay, conditions: HKRK-B7 cells; compound at 1×10^−3 M; cAMP produced as percentage of that produced by hPTH(1-34) at 100 nM

| SMILES | cAMP production activity (%) |
| --- | --- |
| Cc1cc(N(CCO)C(=O)CO)ccc1/C=C/S(=O)(=O)N1CCC2(CC1)N=C(c1cccc(OC(F)(F)F)c1)NC2=O [Compound 722, 2-Hydroxy-N-(2-hydroxy-ethyl)-N-(3-methyl-4-{(E)-2-[4-oxo-2-(3-trifluoromethoxy-phenyl)-1,3,8-triaza-spiro[4.5]dec-1-ene-8-sulfonyl]-vinyl}-phenyl)-acetamide] | 60% |
| Cc1cc(N(C)C(N)=O)cc(C)c1/C=C/S(=O)(=O)N1CCC2(CC1)N=C(C1CCC(CCC(F)(F)F)CC1)NC2=O (stereo not drawn) [Compound 723, 1-[3,5-Dimethyl-4-((E)-2-{4-oxo-2-[4-(3,3,3-trifluoro-propyl)-cyclohexyl]-1,3,8-triaza-spiro[4.5]dec-1-ene-8-sulfonyl}-vinyl)-phenyl]-1-methyl-urea] | 95% |
| Cc1cc(N(CCOCCO)C(N)=O)cc(C)c1/C=C/S(=O)(=O)N1CCC2(CC1)N=C(C1CCC(CCC(F)(F)F)CC1)NC2=O (stereo not drawn) [Compound 724, 1-[3,5-Dimethyl-4-((E)-2-{4-oxo-2-[4-(3,3,3-trifluoro-propyl)-cyclohexyl]-1,3,8-triaza-spiro[4.5]dec-1-ene-8-sulfonyl}-vinyl)-phenyl]-1-[2-(2-hydroxy-ethoxy)-ethyl]-urea] | 74% |
| COCCN(C(N)=O)c1cc(C)c(/C=C/S(=O)(=O)N2CCC3(CC2)N=C(C2CCC(CCC(F)(F)F)CC2)NC3=O)c(C)c1 (stereo not drawn) [Compound 725, 1-[3,5-dimethyl-4-((E)-2-{4-oxo-2-[4-(3,3,3-trifluoro-propyl)-cyclohexyl]-1,3,8-triaza-spiro[4.5]dec-1-ene-8-sulfonyl}-vinyl)-phenyl]-1-(2-methoxy-ethyl)-urea] | 58% |
| Cc1cc(N(C(N)=O)C(C)C)cc(C)c1/C=C/S(=O)(=O)N1CCC2(CC1)N=C(C1CCC(C)CC1)NC2=O (stereo not drawn) [Compound 726, 1-(3,5-Dimethyl-4-{(E)-2-[2-(4-methyl-cyclohexyl)-4-oxo-1,3,8-triaza-spiro[4.5]dec-1-ene-8-sulfonyl]-vinyl}-phenyl)-1-isopropyl-urea] | 75% |
| COc1cc(N(C)C(N)=O)cc(C)c1/C=C/S(=O)(=O)N1CCC2(CC1)N=C(C1CCC(C)CC1)NC2=O (stereo not drawn) [Compound 728, 1-(3-Methoxy-5-methyl-4-{(E)-2-[2-(4-methyl-cyclohexyl)-4-oxo-1,3,8-triaza-spiro[4.5]dec-1-ene-8-sulfonyl]-vinyl}-phenyl)-1-methyl-urea] | 87% |
| Cc1cc(N(CC#N)C(N)=O)ccc1/C=C/S(=O)(=O)N1CCC2(CC1)N=C(c1cccc(OC(F)(F)F)c1)NC2=O [Compound 729, 1-Cyanomethyl-1-(3-methyl-4-{(E)-2-[4-oxo-2-(3-trifluoromethoxy-phenyl)-1,3,8-triaza-spiro[4.5]dec-1-ene-8-sulfonyl]-vinyl}-phenyl)-urea] | 45% |
| Cc1cc(N(C(N)=O)C2CCCC2)ccc1/C=C/S(=O)(=O)N1CCC2(CC1)N=C(c1cccc(OC(F)(F)F)c1)NC2=O [Compound 730, 1-cyclopentyl-1-(3-methyl-4-{(E)-2-[4-oxo-2-(3-trifluoromethoxy-phenyl)-1,3,8-triaza-spiro[4.5]dec-1-ene-8-sulfonyl]-vinyl}-phenyl)-urea] | 74% |
| Cc1cc(N(CC(F)(F)F)C(N)=O)ccc1/C=C/S(=O)(=O)N1CCC2(CC1)N=C(c1cccc(OC(F)(F)F)c1)NC2=O [Compound 731, 1-(3-Methyl-4-{(E)-2-[4-oxo-2-(3-trifluoromethoxy-phenyl)-1,3,8-triaza-spiro[4.5]dec-1-ene-8-sulfonyl]-vinyl}-phenyl)-1-(2,2,2-trifluoro-ethyl)-urea] | 54% |
| Cc1cc(N(C[C@H](O)CO)C(N)=O)cc(C)c1/C=C/S(=O)(=O)N1CCC2(CC1)N=C(C1CCC(C)CC1)NC2=O (stereo partly drawn) [Compound 733, 1-((S)-2,3-Dihydroxy-propyl)-1-(3,5-dimethyl-4-{(E)-2-[2-(4-methyl-cyclohexyl)-4-oxo-1,3,8-triaza-spiro[4.5]dec-1-ene-8-sulfonyl]-vinyl}-phenyl)-urea] | 104% |
| Cc1cc(NS(N)(=O)=O)ccc1/C=C/S(=O)(=O)N1CCC2(CC1)N=C(c1cccc(OC(F)(F)F)c1)NC2=O [Compound 742, N-(3-Methyl-4-{(E)-2-[4-oxo-2-(3-trifluoromethoxy-phenyl)-1,3,8-triaza-spiro[4.5]dec-1-ene-8-sulfonyl]-vinyl}-phenyl)-sulfamide] | 50% |
| Cc1cc(NS(=O)(=O)NCCCO)ccc1/C=C/S(=O)(=O)N1CCC2(CC1)N=C(c1cccc(OC(F)(F)F)c1)NC2=O [Compound 743, N-(3-Hydroxy-propyl)-N′-(3-methyl-4-{(E)-2-[4-oxo-2-(3-trifluoromethoxy-phenyl)-1,3,8-triaza-spiro[4.5]dec-1-ene-8-sulfonyl]-vinyl}-phenyl)-sulfamide] | 54% |

Further lines, results first:

| cAMP production activity (%) | SMILES |
| --- | --- |
| 52% | CCc1cc(N(C)C(N)=O)ccc1/C=C/S(=O)(=O)N1CCC2(CC1)N=C(C1CCC(C)CC1)NC2=O (stereo not drawn) [Compound 727, 1-(3-ethyl-4-{(E)-2-[2-(4-methyl-cyclohexyl)-4-oxo-1,3,8-triaza-spiro[4.5]dec-1-ene-8-sulfonyl]-vinyl}-phenyl)-1-methyl-urea] |
| 45% | CCC1CCC(C2=NC3(CCN(S(=O)(=O)CCc4c(C)cc(N(C)C(N)=O)cc4C)CC3)C(=O)N2)CC1 (stereo not drawn) [Compound 732, 1-(4-{2-[2-(4-Ethyl-cyclohexyl)-4-oxo-1,3,8-triaza-spiro[4.5]dec-1-ene-8-sulfonyl]-ethyl}-3,5-dimethyl-phenyl)-1-methyl-urea] |
| 47% | CC(=O)N(c1ccc(/C=C/S(=O)(=O)N2CCC3(CC2)N=C(C2CCCCC2)NC3=O)c(C)c1)C1CCCC1 [Compound 734, N-{4-[(E)-2-(2-Cyclohexyl-4-oxo-1,3,8-triaza-spiro[4.5]dec-1-ene-8-sulfonyl)-vinyl]-3-methyl-phenyl}-N-cyclopentyl-acetamide trifluoroacetate] |
| 32% | Cc1cc(NC(=O)[C@@H](N)C(C)C)cc(C)c1/C=C/S(=O)(=O)N1CCC2(CC1)N=C(C1CCCCC1)NC2=O [Compound 735, (S)-2-Amino-N-{4-[(E)-2-(2-cyclohexyl-4-oxo-1,3,8-triaza-spiro[4.5]dec-1-ene-8-sulfonyl)-vinyl]-3,5-dimethyl-phenyl}-3-methyl-butylamide] |
| 96% | Cc1cc(CC(N)=O)ccc1/C=C/S(=O)(=O)N1CCC2(CC1)N=C(C1CCC(C)CC1)NC2=O (stereo not drawn) [Compound 737, 2-(3-Methyl-4-{(E)-2-[2-(4-methyl-cyclohexyl)-4-oxo-1,3,8-triaza-spiro[4.5]dec-1-ene-8-sulfonyl]-vinyl}-phenyl)-acetamide] |
| 79% | Cc1cc(NC2=NCCS2)cc(C)c1/C=C/S(=O)(=O)N1CCC2(CC1)N=C(C1CCCCC1)NC2=O [Compound 738, 2-Cyclohexyl-8-{(E)-2-[4-(4,5-dihydro-thiazol-2-ylamino)-2,6-dimethyl-phenyl]-ethenesulfonyl}-1,3,8-triaza-spiro[4.5]dec-1-en-4-one] |
| 47% | Cc1cc(OCC2(C)COC2)ccc1/C=C/S(=O)(=O)N1CCC2(CC1)N=C(C1CCCCC1)NC2=O [Compound 739, 2-Cyclohexyl-8-{(E)-2-[2-methyl-4-(3-methyl-oxetan-3-ylmethoxy)-phenyl]-ethenesulfonyl}-1,3,8-triaza-spiro[4.5]dec-1-en-4-one] |
| 123% | Cc1cc(N(C)C(N)=O)cc(C)c1C1CC1S(=O)(=O)N1CCC2(CC1)N=C(C1CCC(C)CC1)NC2=O (stereo not drawn) [Compound 740, 1-(3,5-Dimethyl-4-{2-[2-(4-methyl-cyclohexyl)-4-oxo-1,3,8-triaza-spiro[4.5]dec-1-ene-8-sulfonyl]-cyclopropyl}-phenyl)-1-methyl-urea] |
| 91% | CC(=CS(=O)(=O)N1CCC2(CC1)N=C(C1CCC(C)CC1)NC2=O)c1c(C)cc(N(C)C(N)=O)cc1C (stereo not drawn) [Compound 741, 1-(3,5-dimethyl-4-{1-methyl-2-[2-(4-methyl-cyclohexyl)-4-oxo-1,3,8-triaza-spiro[4.5]dec-1-ene-8-sulfonyl]-vinyl}-phenyl)-1-methyl-urea] |
| 19% | CC(=O)N(C)c1ccc(/C=C/CS(=O)(=O)N2CCC3(CC2)N=C(C2CCC(C)CC2)NC3=O)c(C)c1 (stereo not drawn) [Compound 744, N-Methyl-N-(3-methyl-4-{(E)-3-[2-(4-methyl-cyclohexyl)-4-oxo-1,3,8-triaza-spiro[4.5]dec-1-ene-8-sulfonyl]-propenyl}-phenyl)-acetamide] |
| 67% | Cc1cc2c(CCS(=O)(=O)N3CCC4(CC3)N=C(C3CCCCC3)NC4=O)cccc2[nH]1 [Compound 745, 2-Cyclohexyl-8-[2-(2-methyl-1H-indol-4-yl)-ethanesulfonyl]-1,3,8-triaza-spiro[4.5]dec-1-en-4-one] |
